Results reported in paper PMC12153338, “Resistance to oxyimino-cephalosporins conferred by an alternative mechanism of hydrolysis by the Acinetobacter-derived cephalosporinase-33 (ADC-33), a class C β-lactamase present in carbapenem-resistant Acinetobacter baumannii (CRAb)” (mBio, 2025).
Converted amounts (≈) assume the structure as drawn.

What was measured:
ADC-73 = ADC-73 (Acinetobacter baumannii, UniProt A0A059ZDI2); assay: Competition kinetics with nitrocefin (Ki), ADC-73; assay type: biochemical; conditions: 3 min pre-incubation, Cheng-Prusoff corrected
Experimental: (§1) For inhibition kinetics, utilizing NCF as a colorimetric substrate of ADCs, the inhibition constant (Ki) of CAZ and FDC with ADCs was determined using competition kinetics as previously described ([5]). After a 3 min pre-incubation of the enzyme (2 nM) with increasing concentration of the inhibitor, measurements of the initial velocities were performed with the addition of 100–200 µM NCF (twofold of the experimentally determined KM value). To determine the average velocities (v0), data from three experiments were fit to the followingequation: […]
(§2) where vu represents the NCF uninhibited velocity and IC50 represents the inhibitor concentration that results in a 50% reduction of vu. The Ki value was corrected for the NCF affinity (KM values for each ADC) with the Cheng-Prusoff ([5]) equation: […]
(§3) The standard error for Ki values was generated by factoring in the larger of the proportional standard errors for the individual IC50 value and the KM -NCF value.

[1] = system: ADC-217 in DH10B Escherichia coli; assay: MIC by broth microdilution, ADC-217 in DH10B E. coli; assay type: cell-based; conditions: DH10B E. coli expressing ADC-217 (non-Adup) from pBCSK−, FDC in iron-depleted cation-adjusted MH broth, mode of triplicate
Experimental: (§4) Susceptibility testing to standard antibiotics was performed by broth microdilution according to 2024 Clinical and Laboratory Standards Institute (CLSI) guidelines ([38]). MICs for FDC were done in iron-depleted cation-adjusted Mueller-Hinton (MH) broth according to CLSI methods. All MICs were interpreted according to the 2024 CLSI guidelines ([38]). MICs are done in triplicate, and the mode MIC value is reported.
(§5) blaADC-7 pBCSK− was cloned and expressed in E. coli DH10B cells as previously described for MIC determinations ([3]). The pBCSK-non-inducible phagemid vector has a chloramphenicol resistance gene used to aid selection. All other blaADC variants were synthesized by GenScript according to the blaADC-7 pBCSK− strategy, cloning into the XbaI/BamHI sites of the pBCSK− vector ([5]).

[2] = system: ADC-219 in DH10B Escherichia coli; assay: MIC by broth microdilution, ADC-219 in DH10B E. coli; assay type: cell-based; conditions: DH10B E. coli expressing ADC-219 (Adup) from pBCSK−, FDC in iron-depleted cation-adjusted MH broth, mode of triplicate
Experimental: as §4, §5

[3] = system: ADC-7 in DH10B Escherichia coli; assay: MIC by broth microdilution, ADC-7 in DH10B E. coli; assay type: cell-based; conditions: DH10B E. coli expressing ADC-7 (non-Adup) from pBCSK−, FDC in iron-depleted cation-adjusted MH broth, mode of triplicate
Experimental: as §4, §5

[4] = system: ADC-30 in DH10B Escherichia coli; assay: MIC by broth microdilution, ADC-30 in DH10B E. coli; assay type: cell-based; conditions: DH10B E. coli expressing ADC-30 (non-Adup) from pBCSK−, FDC in iron-depleted cation-adjusted MH broth, mode of triplicate
Experimental: as §4, §5

[5] = system: ADC variants in DH10B Escherichia coli; assay: MIC, statements across ADC variants in E. coli; assay type: cell-based
Experimental: as §4, §5

[6] = system: ADC-218 in DH10B Escherichia coli; assay: MIC by broth microdilution, ADC-218 in DH10B E. coli; assay type: cell-based; conditions: DH10B E. coli expressing ADC-218 (Adup) from pBCSK−, FDC in iron-depleted cation-adjusted MH broth, mode of triplicate
Experimental: as §4, §5

ADC-33 [7] = biological target: T1, ADC-33 (Acinetobacter baumannii, UniProt A7Y407); assay: Thermal denaturation by circular dichroism, ADC-33; assay type: binding; conditions: ADC-33 12 µM, 1 mM antibiotic, PBS pH 7.4
Experimental: For thermal denaturation, protein samples were monitored for helical content by circular dichroism in the far-UV region at 210 and 220 nm using a Jasco J-815 spectrometer (Easton, MD) with a Peltier-effect temperature controller, as previously described ([41]). Enzyme concentrations were 12 µM in phosphate-buffered saline (PBS) pH 7.4. The thermodynamic stability of apoADC-30 and ADC-33, and with 1 mM FDC and CAZ, was determined from equilibrium unfolding curves. With the assumption of a reversible two-state transition, we determined the Tm at the midpoint of equilibrium folding. Thermal denaturation experiments were done in duplicate under the same conditions, with each data point representing the average of three successive scans, and the Tm values are consistent with ±1°C variation.

ADC-143 = ADC-143 (Acinetobacter baumannii, UniProt Q6DRA1, Q144K, form not given); assay: Competition kinetics with nitrocefin (Ki), ADC-143; assay type: biochemical; conditions: 3 min pre-incubation, Cheng-Prusoff corrected
Experimental: as §1, §2, §3

[8] = system: DH10B Escherichia coli pBCSK− no insert; assay: MIC by broth microdilution, DH10B E. coli with pBCSK− no insert; assay type: cell-based; conditions: DH10B E. coli with pBCSK− no insert (control strain), FDC in iron-depleted cation-adjusted MH broth
Experimental: as §4, §5

[9] = system: ADC-73 in DH10B Escherichia coli; assay: MIC by broth microdilution, ADC-73 in DH10B E. coli; assay type: cell-based; conditions: DH10B E. coli expressing ADC-73 (non-Adup) from pBCSK−, FDC in iron-depleted cation-adjusted MH broth, mode of triplicate
Experimental: as §4, §5

ADC-33 [10] = biological target: T1, ADC-33; conditions: hydrolysis by ADC-33; previously determined; cited from earlier work

CC(C)(O/N=C(\C(=O)N[C@@H]1C(=O)N2C(C(=O)[O-])=C(C[n+]3ccccc3)CS[C@H]12)c1csc(N)n1)C(=O)O [CAZ, ceftazidime]
Ki (ADC-73): 8.72 ± 0.74 µM
MIC [1]: 128 µg/mL (≈ 234 µM)
MIC [2]: 64 µg/mL (≈ 117 µM)
MIC [3]: 64 µg/mL (≈ 117 µM)
MIC [4]: 64 µg/mL (≈ 117 µM)
MIC [5]: ≥ 1020 µg/mL
MIC [6]: 2050 µg/mL (≈ 3750 µM)
change of Tm of the β-lactamase on addition of antibiotic (ADC-33 [7]): does not alter the Tm
Ki (ADC-143): 47.8 ± 3.34 µM
MIC [8]: 0.25 µg/mL (≈ 0.457 µM)
MIC [9]: 64 µg/mL (≈ 117 µM)
kcat (ADC-33 [10]): 3.71 s⁻¹
